Experimental data as given in patent US8710097B2, “Flavonoid dimers and methods of making and using such” (The Hong Kong Polytechnic University, priority 2006, dated 2014).
≈ marks a conversion by molar mass, not a printed value. Read-outs that look alike come from different tables or passages of the source.

Key:
leukemic K562/R7 cells = settings: literature; cited from earlier work
[1] = system: LeMDR1 knockout (LeMDR1 −/−) L. enriettii; assay: Leishmania cell viability (MTS) assay; type: cell-based, Leishmania enriettii
From the text: (§1) Cell lines and Cell Culture.

[2] = system: LeMDR1 overexpressed L. enriettii (LeV160); assay: Leishmania cell viability (MTS) assay; type: cell-based, Leishmania enriettii
From the text: as §1

MDA435/LCC6 MDR cells [3] = assay: Doxorubicin accumulation; type: cell-based, human; settings: LCC6 MDR; apigenin dimers 10 μM; 20 μM doxorubicin, 2 h
Procedure: Doxorubicin accumulation. 2.5 ml (10^5 cells/ml) MDA435/LCC6 (both parent and MDR subtype) cells were seeded in each well of 6-well plates. At confluence, culture medium was removed. 2 ml of fresh DMEM with modulators was added and cells were incubated for 30 min at 37° C. Doxorubicin (final concentration of 20 μM) was then added and incubated for 2 h at 37° C. The cells were then harvested by trypsinization.
(§2) For P388 (both parent and MDR subtype) cells, 1 ml (10^5 cells) confluent cells were aliquot into Eppendorf tube and pre-incubated with flavone dimers for 30 min at 37° C. Doxorubicin (final concentration of 10 μM) was then added and incubated for 2 h at 37° C. at a final concentration of 10 μM. The cell pellets were washed 3 times with cold PBS by using an Eppendorf micro-centrifuge and lysed with 0.3N HCL in 50% ethanol, and sonicated for 30s. After centrifugation at 10000 rpm/min for 3 min, the supernatant was saved. The fluorescence of doxorubicin was measured using a spectrofluorometer (λexcite=470 nm, λemit=585 nm).
In order to understand whether the modulating activity for various anticancer drugs by different dimers is due to their different ability to modulate P-gp mediated drug efflux, their effects on the accumulation of doxorubicin in both MDA435/LCC6 sensitive and resistant cells were investigated. Doxorubicin was a fluorescent drug substrate of P-gp and was used in this experiment to monitor the P-gp mediated drug efflux. Accumulation of doxorubicin in these cells was determined in the presence or absence of apigenin dimers (10 μM) and monomer (20 μM). Verapamil was used as a positive control.

P388/ADR cells [4] = assay: Doxorubicin accumulation; type: cell-based, murine; settings: monomer 10b at double concentration of the dimers, FIG. 11A
Procedure: as §2

[5] = system: pentamidine-resistant L. enriettii LePentR50 promastigotes; assay: microbe, parasite or virus in culture; settings: for pentamidine sensitization: LePentR50, FIG. 18A
Procedure: (§3) Cell lines and Cell Culture. Promastigotes of Leishmania enriettii (LePentR50, Le wild type, LeMDR1 −/− and LeMDR1-overexpressed LeV160 mutants) and Leishmania donovani (LdAG83, Ld2001 and Ld39) were employed in this study. The former is a natural infective strain of guinea pig and the latter is a clinical strain, which may cause visceral leishmaniasis in human. Both strains were cultured in Schneider's Drosophila Medium (Invitrogen), pH 6.9 supplemented with 10% (v/v) heat inactivated fetal calf serum (Hyclone) with 4 mM glutamine (Sigma) and 25 μg/mL gentamicin solution (Invitrogen), at 27° C. for 4 days (Cloning and functional analysis of an extrachromosomally amplified multidrug resistance-like gene in Leishmania enriettii. Mol. Biochem. Parasitol 1993, 60, 195-208).
(§4) Promastigotes of LeV160 were culture in the presence of 160 μg/mL vinblastine. No pentamidine and vinblastine (Sigma) was added to the Le wild type and LeMDR1 −/− mutant.
(§5) The viability of promastigotes was determined by the Cell Titer 96® Aqueous Assay (Promega) that employs a tetrazolium compound (MTS) and electron coupling reagent, phenazine methosulfate (PMS). Promastigotes were seeded into 96-well flat bottom microtiter plate at 1×10^5 cells per well in a final volume of 100 μL medium. To determine the cytotoxic effects of flavonoid dimers to the parasites, various concentrations of flavonoid dimers were added to the promastigotes. To determine the reversal effects of flavonoid dimers with different spacer lengths, various concentrations of antileishmanial drugs, one of pentamidine or SSG, vinblastine and puromycin was added to the wells with or without flavonoid dimers. The parasites were incubated at 27° C. for 72 hrs. Each concentration of antileishmanials with or without the flavonoid dimers was tested in triplicates in each experiment. A 2 mg/mL MTS and 0.92 mg/mL PMS were mixed at a ratio of 20:1 (MTS: PMS). After 72-hr incubation, 10 μL of MTS:PMS mixture was added into each well of microtiter plate. The plate was then incubated at 27° C. for 4 hrs for color development. After 4 hrs of incubation, the OD values were determined at 490 nm using automatic microtiter plate reader (Bio-Rad).

[6] = system: SSG-resistant L. donovani Ld39 promastigotes; assay: microbe, parasite or virus in culture; type: cell-based, Leishmania donovani; settings: for IC50: read-out: IC50(μM) of synthetic flavonoid, Ld39; for SSG resistance modulating activity: 12 μM, FIG. 14B
Procedure: as §3, with “195-208). […]” for “195-208).”
as §5

[7] = system: wild type L. donovani LdAG83 promastigotes; assay: Leishmania cell viability (MTS) assay; type: cell-based, Leishmania donovani; settings: for IC50: read-out: IC50(μM) of synthetic flavonoid, LdAG83
Procedure: as §3, with “195-208). […]” for “195-208).”
as §5

MDA435/LCC6 MDR cells [8] = assay: cells; settings: MDA435/LCC6 MDR; for doxorubicin resistance reversal: monomers; for reversing effect on taxol resistance: monomers at 10 μM
Procedure: (§6) MDA435/LCC6 and P388 (both parent and MDR subtype) were maintained in DMEM and RPMI 1640 culture medium supplemented with 10% FBS, respectively. RPMI 1640 media also contained 100 units/ml penicillin and 100 μg/ml streptomycin. Cells were cultured at 37° C. in a humidified atmosphere with 5% CO2. A solution of 0.05% trypsin-EDTA was used to detach the MDA435/LCC6 (both wild type and MDR subtype) cells.
(§7) Cell proliferation assay. MDA435/LCC6 and P388 (both parent and MDR subtype) cells were seeded at 2000 and 5000 cells per well, respectively, in 96-well plates. Varying concentrations of anticancer drugs (Doxorubicin, Daunorubicin, Vincristine, Vinblastine, taxol, Mitoxantrone) with or without the flavonoid dimers were added in a final volume of 200 μl and cells were grown for 4 and 3 days for MDA435/LCC6 and P388 (both parent and MDR subtype) cells, respectively. For MDA435/LCC6 (both parent and MDR subtype), the corresponding drugs were added after cell attachment (24 hr incubation). To measure cell proliferation, the cell Titer 960 Aqueous Assay (Promega) was used according to the manufacturer's instructions. Briefly, MTS (2 mg/ml) and PMS (0.92 mg/ml) were mixed in a ratio of 20:1. 30 μl MTS/PMS mixture was added into each well and incubated for 2 hours at 37° C. Optical absorbance at 490 nm was then recorded using an ELISA microtiter plate reader (Bio-Rad). Each experiment was done at least in triplicate and repeated twice. Cytotoxicity of the anticancer drugs was expressed as the fraction of the cells survived relative to the untreated DMSO (0.05%) solvent controls.
MDA435/LCC6 is an estrogen-independent human breast cancer cell line. Its MDR subtype (MDA435/LCC6 MDR) was generated by transducing a retroviral vector directing the constitutive expression of the human MDR1 cDNA, producing a cell line with a classical MDR1 resistance pattern (MDA435/LCC6 and MDA435/LCC6MDR1: ascites models of human breast cancer. Br J Cancer 1996, 73, 154-161). The ability of the apigenin dimers of this invention to reverse taxol resistance in MDA435/LCC6 MDR cells were tested. […] Apigenin monomers 10a and 10b at 10 μM were used as the negative controls.

P388/ADR cells [9] = assay: cells
Procedure: as §6, §7

[10] = system: tested MDR cell lines (drug resistant breast cancer and leukemia cells); type: cell-based; settings: tested MDR cell lines; 10 μM
From the text: Cell proliferation assay.

P388 cells = assay: Doxorubicin accumulation; type: cell-based, murine
Procedure: as §2

MDA435/LCC6 cells = assay: Doxorubicin accumulation; type: cell-based, human; settings: LCC6, basal P-gp; dimers 10 μM, monomer 20 μM
Procedure: Doxorubicin accumulation. […] At confluence, culture medium was removed. 2 ml of fresh DMEM with modulators was added and cells were incubated for 30 min at 37° C. Doxorubicin (final concentration of 20 μM) was then added and incubated for 2 h at 37° C. The cells were then harvested by trypsinization.

[11] = molecular target: NBD2 cytosolic domain of mouse P-gp (Mus musculus, UniProt P06795); settings: reported in literature; cited from earlier work
[12] = system: wild type L. enriettii (Le); assay: Leishmania cell viability (MTS) assay; type: cell-based, Leishmania enriettii
Procedure: as §3, §4
as §5, with “After 72-hr incubation, 10 μL of MTS:PMS mixture was added into each well of microtiter plate. The plate was then incubated at 27° C. for 4 hrs for color development.” left out

[13] = Leishmania enriettii, 72 h, read-out: IC50(μM) of synthetic flavonoid, LePentR50, cytotoxicity of compound alone, 72 hrs
[14] = cytotoxicity of compound alone, 72 hrs
[15] = Leishmania enriettii, read-out: IC50 of pentamidine (μg/ml), no modulator

Sequence of NBD2 cytosolic domain of mouse P-gp (P06795 1033-1271 limits assumed): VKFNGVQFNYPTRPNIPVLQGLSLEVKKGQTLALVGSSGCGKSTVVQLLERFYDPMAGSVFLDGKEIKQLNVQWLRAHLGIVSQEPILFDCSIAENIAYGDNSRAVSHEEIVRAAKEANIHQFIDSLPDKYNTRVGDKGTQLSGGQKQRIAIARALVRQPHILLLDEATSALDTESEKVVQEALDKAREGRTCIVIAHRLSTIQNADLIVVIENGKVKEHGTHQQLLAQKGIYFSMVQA

CC(C)=CCc1c(O)cc2oc(-c3ccccc3)cc(=O)c2c1O [6-Prenylchrysin]
inhibition of P-gp mediated drug efflux (leukemic K562/R7 cells): inhibited P-gp mediated drug efflux

CC(C)=CCc1c(O)cc(O)c2c(=O)cc(-c3ccccc3)oc12 [8-Prenylchrysin]
inhibition of P-gp mediated drug efflux (leukemic K562/R7 cells): inhibited P-gp mediated drug efflux

O=c1cc(-c2ccc(OCCOCCOCCOc3ccc(-c4cc(=O)c5c(O)cc(O)cc5o4)cc3)cc2)oc2cc(O)cc(O)c12 [Compound 9c, 1,10-Bis[4′-((5,7-dihydroxy)-4H-chromen-4-on-2-yl)phenyl]-1,4,7,10-tetraoxadecane]
pentamidine sensitization ([1]; LeMDR1 −/−): 3.8 fold
decrease of IC50 of pentamidine ([2]; LeV160): about 1.8 fold
enhancement of doxorubicin accumulation, folds of control (MDA435/LCC6 MDR cells [3]): 4.5 folds
activity on doxorubicin accumulation (P388/ADR cells [4]): comparable activity to 9d
pentamidine sensitization [5]: about 2.7 fold
IC50 [5, 13]: > 200 µM
reduction of SSG resistance level ([6]; Ld39, 4 μM, FIGS. 17A and 17B): back to the level of the sensitive strain
SSG sensitization ([6]; Ld39, FIG. 18B): 3.1 fold
IC50 ([6]; Leishmania donovani, 72 h): 11 ± 0.7 µM
IC50 ([7]; Leishmania donovani, 72 h): 8 ± 0.3 µM
modulatory effect on SSG sensitivity ([7]; SSG-sensitive wild type LdAG83, FIG. 14D): no modulatory effect
IC60 of doxorubicin with modulator (MDA435/LCC6 MDR cells [8]; 5 μM dimer, FIG. 5): 1.3 µM
reduction of IC60 of doxorubicin, RF (MDA435/LCC6 MDR cells [8]; 5 μM dimer, FIG. 5): about 3.6 RF

O=c1cc(-c2ccc(OCCOCCOCCO)cc2)oc2cc(O)cc(O)c12 [Compound 10a, 9-[4′-((5,7-dihydroxy)-4H-chromen-4-on-2-yl)phenyl]-3,6,9,-trioxanonan-1-ol]
modulatory activity on doxorubicin and daunorubicin cytotoxicity (P388/ADR cells [9]): little modulatory activity
IC50 ([5]; read-out: IC50(μM) of synthetic flavonoid, LePentR50, cytotoxicity of compound alone, 72 hrs): > 200 µM
SSG resistance modulating activity ([6]; Ld39): did not give any significant modulating activity
IC50 [6, 14]: > 200 µM
IC50 [7, 14]: > 200 µM
doxorubicin resistance reversal (MDA435/LCC6 MDR cells [8]): ineffective reversers
reversing effect on taxol resistance (MDA435/LCC6 MDR cells [8]): little reversing effect
anticancer activity of monomers alone [10]: no anticancer activity

O=c1cc(-c2ccc(OCCOCCOCCOCCO)cc2)oc2cc(O)cc(O)c12 [Compound 10b, 12-[4′-((5,7-dihydroxy)-4H-chromen-4-on-2-yl)phenyl]-3,6,9,12-tetraoxadodecan-1-ol]
modulatory activity on doxorubicin and daunorubicin cytotoxicity (P388/ADR cells [9]): little modulatory activity
activity on doxorubicin accumulation (P388/ADR cells [4]): little or no activity at all
IC50 [5, 13]: > 200 µM
SSG resistance modulating activity ([6]; Ld39): did not give any significant modulating activity
IC50 ([6]; Leishmania donovani, 72 h): > 200 µM
IC50 ([7]; Leishmania donovani, 72 h): > 200 µM
doxorubicin resistance reversal (MDA435/LCC6 MDR cells [8]): ineffective reversers
reversing effect on taxol resistance (MDA435/LCC6 MDR cells [8]): little reversing effect
anticancer activity of monomers alone [10]: no anticancer activity

COc1ccc(CCN(C)CCCC(C#N)(c2ccc(OC)c(OC)c2)C(C)C)cc1OC (stereo not drawn) [Verapamil, reference compound]
enhancement of doxorubicin accumulation, folds of control (MDA435/LCC6 MDR cells [3]): 6.2 folds
doxorubicin accumulation in parent sensitive cells (P388 cells): almost unaffected
pentamidine sensitization [5]: less than half-fold sensitization
accumulation of doxorubicin in LCC6 (MDA435/LCC6 cells): unaffected

O=c1c(O)c(-c2ccc(O)cc2)oc2cc(O)cc(O)c12 [kaempferol]
binding to NBD2 cytosolic domain of mouse P-gp [11]: bind directly

N=C(N)c1ccc(OCCCCCOc2ccc(C(=N)N)cc2)cc1 [pentamidine, reference compound]
IC50 [1, 15]: 18.9 ± 0.8 µg/mL (≈ 55.5 µM)
IC50 [2, 15]: 9 ± 0.1 µg/mL (≈ 26.4 µM)
IC50 of pentamidine (μg/ml), no modulator ([12]; Le wild type): 12.0 ± 0.8 µg/mL
IC50 ([12]; Leishmania enriettii, read-out: IC50 of pentamidine (μg/ml), no modulator, Le wild type): ~8.7 µg/mL (≈ 25.6 µM)
survival of LePentR50 ([5]; 60 μg/ml pentamidine alone): 94.0±2.3 % of untreated
IC50 ([5]; Leishmania enriettii, read-out: IC50 of pentamidine alone, LePentR50, no modulator (DMSO)): 117 µg/mL

O=c1c(O)c(-c2ccc(O)c(O)c2)oc2cc(O)cc(O)c12 [quecetin]
binding to NBD2 cytosolic domain of mouse P-gp [11]: bind directly

dehydrosilybin
binding to NBD2 cytosolic domain of mouse P-gp [11]: bind directly
